Where a name gives a salt, the structure may show the parent alone. Read-outs that look alike come from different tables or passages of the source.
Columns and labels:
[1] = target: T1, human CYP1A2 (Homo sapiens, UniProt P05177); test: biochemical; conditions: for IC50: CYP1A2 IC50 (half-maximal inhibitory concentration)
T1 sequence (P05177 1-516): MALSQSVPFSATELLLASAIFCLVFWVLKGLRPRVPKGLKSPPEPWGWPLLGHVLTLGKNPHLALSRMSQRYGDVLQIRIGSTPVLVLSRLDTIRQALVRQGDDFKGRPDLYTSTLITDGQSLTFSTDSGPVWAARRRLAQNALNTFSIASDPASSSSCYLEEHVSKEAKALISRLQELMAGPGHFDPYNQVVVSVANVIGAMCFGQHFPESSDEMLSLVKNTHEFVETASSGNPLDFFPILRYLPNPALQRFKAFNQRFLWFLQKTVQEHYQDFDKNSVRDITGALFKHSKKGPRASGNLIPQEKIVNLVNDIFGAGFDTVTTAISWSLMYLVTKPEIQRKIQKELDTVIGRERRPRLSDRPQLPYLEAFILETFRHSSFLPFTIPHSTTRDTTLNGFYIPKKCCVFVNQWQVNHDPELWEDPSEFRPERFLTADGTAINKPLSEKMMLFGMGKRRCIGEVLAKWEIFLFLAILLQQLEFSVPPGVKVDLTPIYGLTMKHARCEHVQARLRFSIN

[2] = target: T2, human CYP2C9 (Homo sapiens, UniProt P11712); test: biochemical; conditions: for IC50: CYP2C9 IC50 (half-maximal inhibitory concentration)
[3] = target: T3, human CYP2C19 (Homo sapiens, UniProt P33261); test: biochemical
[4] = target: human CYP2D6 (Homo sapiens, UniProt P10635); test: biochemical
[5] = target: CYP3A4 (Homo sapiens, UniProt P08684); test: biochemical
[6] = target: Photinus pyralis (firefly) luciferase (Photinus pyralis, UniProt P08659); test: biochemical; assay type: biochemical
[7] = target: T1, human CYP1A2
[8] = target: T3, human CYP2C19
[9] = target: T2, human CYP2C9
[10] = CYP1A2 AC50 (half-maximal activity concentration)
[11] = CYP2C9 AC50 (half-maximal activity concentration)
[12] = CYP2C19 AC50 (half-maximal activity concentration)
[13] = CYP2D6 AC50 (half-maximal activity concentration)
[14] = CYP3A4 AC50 (half-maximal activity concentration)
[15] = CYP2C19 IC50 (half-maximal inhibitory concentration)
[16] = CYP2D6 IC50 (half-maximal inhibitory concentration)
[17] = CYP3A4 IC50 (half-maximal inhibitory concentration)

Sequence of human CYP2D6 (P10635 whole entry): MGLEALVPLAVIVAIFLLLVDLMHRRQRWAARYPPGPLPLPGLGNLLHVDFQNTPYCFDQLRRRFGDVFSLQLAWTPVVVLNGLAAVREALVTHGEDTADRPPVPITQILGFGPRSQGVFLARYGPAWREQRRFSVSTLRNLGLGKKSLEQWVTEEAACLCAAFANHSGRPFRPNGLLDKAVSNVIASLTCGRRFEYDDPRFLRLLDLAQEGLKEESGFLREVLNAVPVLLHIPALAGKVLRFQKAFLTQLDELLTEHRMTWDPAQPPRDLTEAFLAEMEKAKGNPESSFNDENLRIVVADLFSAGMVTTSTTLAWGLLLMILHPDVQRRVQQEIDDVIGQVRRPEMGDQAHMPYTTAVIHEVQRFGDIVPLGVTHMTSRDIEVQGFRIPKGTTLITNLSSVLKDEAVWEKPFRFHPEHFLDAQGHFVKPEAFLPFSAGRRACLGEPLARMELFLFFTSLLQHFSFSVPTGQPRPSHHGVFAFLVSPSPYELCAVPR
T3 sequence (P33261 whole entry): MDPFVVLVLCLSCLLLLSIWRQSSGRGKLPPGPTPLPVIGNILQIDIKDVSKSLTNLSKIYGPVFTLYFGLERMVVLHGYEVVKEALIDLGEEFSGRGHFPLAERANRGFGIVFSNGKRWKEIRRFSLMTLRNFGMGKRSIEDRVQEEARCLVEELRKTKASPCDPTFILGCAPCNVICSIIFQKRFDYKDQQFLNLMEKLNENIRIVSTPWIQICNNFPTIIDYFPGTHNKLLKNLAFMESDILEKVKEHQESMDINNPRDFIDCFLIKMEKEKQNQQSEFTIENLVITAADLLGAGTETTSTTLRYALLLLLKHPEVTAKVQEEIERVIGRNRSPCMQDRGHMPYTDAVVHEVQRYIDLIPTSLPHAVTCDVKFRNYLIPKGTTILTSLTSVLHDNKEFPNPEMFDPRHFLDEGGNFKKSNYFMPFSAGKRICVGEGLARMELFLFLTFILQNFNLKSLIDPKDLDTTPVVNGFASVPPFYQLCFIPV
T2 sequence (P11712 whole entry): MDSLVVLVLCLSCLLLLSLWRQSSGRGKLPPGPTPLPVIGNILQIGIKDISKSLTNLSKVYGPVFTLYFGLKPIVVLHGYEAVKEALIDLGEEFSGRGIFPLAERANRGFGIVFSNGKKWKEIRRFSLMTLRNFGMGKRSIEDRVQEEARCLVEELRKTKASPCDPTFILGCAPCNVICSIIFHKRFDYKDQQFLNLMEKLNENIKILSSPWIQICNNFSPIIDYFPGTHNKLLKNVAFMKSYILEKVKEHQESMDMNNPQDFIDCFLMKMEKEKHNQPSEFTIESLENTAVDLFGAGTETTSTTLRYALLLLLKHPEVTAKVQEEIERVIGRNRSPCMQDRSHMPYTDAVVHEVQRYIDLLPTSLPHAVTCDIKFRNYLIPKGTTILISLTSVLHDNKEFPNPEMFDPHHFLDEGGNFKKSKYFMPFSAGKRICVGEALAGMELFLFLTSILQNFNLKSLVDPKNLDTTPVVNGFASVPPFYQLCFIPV
Sequence of CYP3A4 (P08684 whole entry): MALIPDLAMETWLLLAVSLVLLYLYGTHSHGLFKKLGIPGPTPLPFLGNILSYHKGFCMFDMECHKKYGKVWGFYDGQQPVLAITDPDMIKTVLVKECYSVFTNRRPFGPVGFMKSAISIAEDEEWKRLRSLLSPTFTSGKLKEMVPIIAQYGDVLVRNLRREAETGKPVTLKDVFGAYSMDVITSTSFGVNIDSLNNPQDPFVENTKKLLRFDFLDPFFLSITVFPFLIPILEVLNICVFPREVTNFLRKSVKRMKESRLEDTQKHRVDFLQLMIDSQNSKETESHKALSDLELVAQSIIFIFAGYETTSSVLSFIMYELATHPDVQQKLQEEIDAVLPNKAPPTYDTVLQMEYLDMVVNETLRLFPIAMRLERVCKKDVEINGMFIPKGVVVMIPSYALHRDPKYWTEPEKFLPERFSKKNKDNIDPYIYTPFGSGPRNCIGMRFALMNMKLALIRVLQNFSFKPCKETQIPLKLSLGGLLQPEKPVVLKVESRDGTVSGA
Sequence of Photinus pyralis (firefly) luciferase (P08659 whole entry): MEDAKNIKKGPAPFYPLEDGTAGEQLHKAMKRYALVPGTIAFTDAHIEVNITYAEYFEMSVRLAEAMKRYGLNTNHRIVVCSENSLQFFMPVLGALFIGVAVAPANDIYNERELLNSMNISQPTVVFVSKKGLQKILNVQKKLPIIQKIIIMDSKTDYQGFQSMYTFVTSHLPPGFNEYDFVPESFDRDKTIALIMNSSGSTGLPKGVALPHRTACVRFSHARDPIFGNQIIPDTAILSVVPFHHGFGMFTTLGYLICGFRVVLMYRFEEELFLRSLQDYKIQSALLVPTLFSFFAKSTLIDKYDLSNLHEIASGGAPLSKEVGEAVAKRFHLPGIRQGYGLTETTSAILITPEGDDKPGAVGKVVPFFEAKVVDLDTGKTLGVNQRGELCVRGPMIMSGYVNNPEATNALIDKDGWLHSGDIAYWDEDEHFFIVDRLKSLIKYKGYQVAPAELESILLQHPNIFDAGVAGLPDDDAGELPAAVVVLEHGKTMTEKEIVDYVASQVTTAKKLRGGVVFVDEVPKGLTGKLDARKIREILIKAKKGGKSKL

Row | Structure (SMILES) | AC50 [1, 10] [µM] | AC50 [2, 11] [µM] | AC50 [3, 12] [µM] | AC50 [4, 13] [µM] | AC50 [5, 14] [µM] | further results
1 | O=C(C(=O)c1ccccc1)c1ccccc1 [1,2-Diphenylethanedione] | 12.1 | 1.13 | 14.8 | 29.4 | 35.4 | –
2 | Cc1ccccc1NC(=N)Nc1ccccc1C [1,3-Bis(2-methylphenyl)guanidine] | – | – | – | – | – | Luciferase IC50 [6]: Inactive; CYP1A2 IC50 [7]: Inactive; IC50 ([3]; CYP2C19 IC50): 1.11 µM; IC50 ([4]; CYP2D6 IC50): 0.01 µM; IC50 ([5]; CYP3A4 IC50): 41 µM
3 | ClC(Cl)(Cl)c1ccc(C(Cl)(Cl)Cl)cc1 [1,4-Bis(trichloromethyl)benzene] | 5.66 | 34.2 | – | 58.6 | 45.9 | CYP2C19 AC50 (half-maximal activity concentration) [8]: Inconclusive inhibitor
4 | Nc1ccc(N)c2c1C(=O)c1ccccc1C2=O [1,4-Diaminoanthraquinone] | – | – | – | – | – | IC50 [6]: 15.2 µM; IC50 [1]: 0.35 µM; IC50 [3, 15]: 24.7 µM; IC50 [4, 16]: 33 µM; IC50 [5, 17]: 5.17 µM
5 | Oc1c(Br)cc(Br)cc1Br [2,4,6-Tribromophenol] | 51.7 | 38.5 | – | 68.4 | 72.8 | CYP2C19 AC50 (half-maximal activity concentration) [8]: Inconclusive inhibitor
6 | Oc1c(I)cc(I)cc1I [2,4,6-Triiodophenol] | 37.2 | 41.2 | 61.9 | 80.7 | 63.5 | –
7 | Cc1cccc2sc(N)nc12 [2-Amino-4-methylbenzothiazole] | 21.2 | – | 27.8 | 41.1 | 11.8 | CYP2C9 AC50 (half-maximal activity concentration) [9]: Inconclusive inhibitor
8 | O=C(O)c1cc(Cl)cc(Cl)c1 [3,5-Dichlorobenzoic acid] | 57.8 | 58.9 | – | 27.8 | 55.5 | CYP2C19 AC50 (half-maximal activity concentration) [8]: Inconclusive inhibitor
9 | Cc1ccc(C(=O)c2ccccc2)cc1 [4-Methylbenzophenone] | 34.3 | 34.3 | 13.3 | 46.2 | 16 | –
10 | O=C1C(=O)c2cccc3cccc1c23 [Acenaphthenequinone] | 7.99 | – | 35.7 | 23.4 | 23.7 | CYP2C9 AC50 (half-maximal activity concentration) [9]: Inconclusive inhibitor
11 | COc1ccc(C(O)(c2cncnc2)C2CC2)cc1 (centres unmarked) [Ancymidol] | – | – | – | – | – | Luciferase IC50 (half-maximal inhibitory concentration) [6]: Inactive; CYP1A2 IC50 (half-maximal inhibitory concentration) [7]: Inactive; IC50 [2]: 38.2 µM; IC50 [3, 15]: 19.3 µM; IC50 [4, 16]: 47 µM; IC50 [5, 17]: 0.8 µM
12 | O=C(c1ccccc1)C(O)c1ccccc1 (centres unmarked) [Benzoin] | 22.6 | 2.27 | 15.8 | 36.7 | 22.8 | –
13 | c1ccc(CSCc2ccccc2)cc1 [Benzyl sulfide] | 27.3 | 29.8 | 5.94 | 61.9 | 7.5 | –
14 | COC(=O)c1cc(Oc2ccc(Cl)cc2Cl)ccc1[N+](=O)[O-] [Bifenox] | 20.4 | 7.1 | 2.45 | 25.3 | 5.23 | –
15 | CCCCC(CC)COP(=O)(O)OCC(CC)CCCC (centres unmarked) [Bis(2-ethylhexyl) phosphate] | 82.9 | 16.5 | 40.6 | 56.6 | 37.6 | –
16 | O=C1C=CC(=O)N1c1ccc(Cc2ccc(N3C(=O)C=CC3=O)cc2)cc1 [Bismaleimide] | 23.9 | 4.93 | 8.29 | 43.6 | 56.6 | –
17 | CCCCCCCC(=O)Oc1c(Br)cc(C#N)cc1Br [Bromoxynil octanoate] | 15 | 34.5 | 32.5 | 85.8 | 15.4 | –
18 | C#CC(C)N(C)C(=O)Nc1ccc(Cl)cc1 (centres unmarked) [Buturon] | 5.47 | 22.8 | 8.68 | 55.3 | 9.33 | –
19 | COc1cc(N)c(Cl)cc1C(=O)NC1CCN(Cc2ccccc2)CC1 [Clebopride maleate] | – | – | – | – | – | Luciferase IC50 (half-maximal inhibitory concentration) [6]: Inactive; CYP1A2 IC50 (half-maximal inhibitory concentration) [7]: Inactive; CYP2C9 IC50 (half-maximal inhibitory concentration) [9]: Inactive; IC50 [3]: 38.9 µM; IC50 [4]: 0.03 µM; IC50 [5]: 2.06 ± 0.47 µM

Row | Structure (SMILES) | AC50 [1, 10] [µM] | AC50 [2, 11] [µM] | AC50 [3, 12] [µM] | AC50 [4, 13] [µM] | AC50 [5, 14] [µM] | further results
20 | CCOP(=O)(Sc1ccccc1)Sc1ccccc1 [Edifenphos] | 13 | 29.7 | 8.61 | 42.7 | 8.65 | –
21 | CCOC(=O)[C@@H](C)Oc1ccc(Oc2nc3ccc(Cl)cc3o2)cc1 [Fenoxaprop-P-ethyl] | 23.8 | 55 | 62.1 | 47.5 | 47.6 | –
22 | CC(C)C(O)(c1ccc(OC(F)(F)F)cc1)c1cncnc1 (centres unmarked) [Flurprimidol] | – | – | – | – | – | IC50 [1]: 63.3 µM; IC50 [3, 15]: 2.67 µM; IC50 [4, 16]: 10.3 µM; IC50 [5, 17]: 0.54 µM
23 | COC(=O)C(C)Oc1ccc(Oc2ncc(C(F)(F)F)cc2Cl)cc1 (centres unmarked) [Haloxyfop-methyl] | – | – | – | – | – | AC50 [1]: 46.8 µM; AC50 [2]: 5.74 µM; AC50 [3]: 50.9 µM; AC50 [4]: 46.8 µM; AC50 [5]: 27.8 µM
24 | COC(=O)N(C(=O)N1CO[C@@]2(C(=O)OC)Cc3cc(Cl)ccc3C2=N1)c1ccc(OC(F)(F)F)cc1 [Indoxacarb] | – | – | – | – | – | Luciferase IC50 (half-maximal inhibitory concentration) [6]: Inactive; CYP1A2 IC50 (half-maximal inhibitory concentration) [7]: Inactive; IC50 [2]: 3.35 µM; IC50 [3, 15]: 0.17 µM; IC50 [4, 16]: 14 µM; IC50 [5, 17]: 2.61 µM
25 | Cc1ccnc2ccccc12 [Lepidine] | – | – | – | – | – | CYP2C9 AC50 (half-maximal activity concentration) [9]: Inconclusive activator; CYP2C19 AC50 (half-maximal activity concentration) [8]: Inconclusive; AC50 [1]: 38.4 µM; AC50 [4]: 61.3 µM; AC50 [5]: 31.1 µM
26 | COc1cccc(C(=O)NN(C(=O)c2cc(C)cc(C)c2)C(C)(C)C)c1C [Methoxyfenozide] | – | – | – | – | – | Luciferase IC50 (half-maximal inhibitory concentration) [6]: Inactive; CYP1A2 IC50 (half-maximal inhibitory concentration) [7]: Inactive; IC50 [2]: 18.1 µM; IC50 [3, 15]: 3.43 µM; IC50 [4, 16]: 44 µM; IC50 [5, 17]: 0.74 µM
27 | COc1ccc(C(=O)c2ccc(C)cc2)c(O)c1 [Mexenone] | 16.1 | 14.7 | 5.89 | 56.1 | 6.22 | –
28 | CN(C/C=C/c1ccccc1)Cc1cccc2ccccc12 [Naftifine hydrochloride] | 12.5 | 12.5 | 5.52 | 1.06 | 12.4 | –
29 | OC1(c2ccc(Cl)c(C(F)(F)F)c2)CCN(CCCC(c2ccc(F)cc2)c2ccc(F)cc2)CC1 [Penfluridol] | – | – | – | – | – | AC50 [1]: 29.9 ± 4.12 µM; AC50 [2]: 10.3 ± 1.85 µM; AC50 [3]: 16.6 ± 4.88 µM; AC50 [4]: 5.85 ± 1.65 µM; AC50 [5]: 2.39 ± 0.41 µM
30 | CCCSP(=O)(OCC)Oc1ccc(Br)cc1Cl (centres unmarked) [Profenofos] | 4.52 | 9.76 | 4.22 | 13.8 | 3.25 | –
31 | CC(=O)[C@H]1CC[C@H]2[C@@H]3CCC4=CC(=O)CC[C@]4(C)[C@H]3CC[C@]12C [Progesterone] | 29.9 | 26.5 | 4.06 | 47.7 | 2.35 | –
32 | CNC(=O)Oc1cc(C)cc(C(C)C)c1 [Promecarb] | 26.9 | – | 42.2 | 58.1 | 25.3 | CYP2C9 AC50 (half-maximal activity concentration) [9]: Inactive
33 | O=C(CCN1CCC(c2ccccc2)C1)c1ccc2c(c1)OCCO2 (centres unmarked) [Proroxan] | 32.3 | – | 39.1 | 2.28 | 28.8 | CYP2C9 AC50 (half-maximal activity concentration) [9]: Inconclusive inhibitor
34 | CCOC(=O)C(C)Oc1ccc(Oc2cnc3cc(Cl)ccc3n2)cc1 (centres unmarked) [Quizalofop-ethyl] | 36.3 | 17.4 | 36.2 | 42.5 | 12.3 | –
35 | COP(=O)(OC)OC(=CCl)c1cc(Cl)c(Cl)cc1Cl [Tetrachlorovinphos] | 3 | 29 | 6.81 | 33.7 | 3.72 | –
36 | Cc1ccccc1OP(=O)(Oc1ccccc1C)Oc1ccccc1C [Tri-o-cresyl phosphate] | 32 | 4.9 | 1.3 | 43.3 | 2.11 | –
37 | COP(=O)(OC)O/C(=C\Cl)c1cc(Cl)c(Cl)cc1Cl [Z-Tetrachlorvinphos] | 2.28 | 38.8 | 5.82 | 56.6 | 2.49 | –
